# B1: BDNF: neurotrophic factor used as a positive control (protein, UniProt P23560 19-247, looked up)
# Neurotrophic factor BDNF …: APMKEANIRGQGGLAYPGVRTHGTLESVNGPKAGSRGLTSLADTFEHVIEELLDEDQKVRPNEENNKDADLYTSRVMLSSQVPLEPPLLFLLEEYKNYLDAANMSMRVRRHSDPARRGELSVCDSISEWVTAADKKTAVDMSGGTVTVLEKVPVSKGQLKQYFYETKCNPMGYTKEGCRGIDKRHWNSQCRTTQSYVRALTMDSKKRIGWRFIRIDTSCVCTLTIKRGR
# Experiments:
# motor neurons = test: Induction of motor neuron cell death by glutamate toxicity (domoic acid); assay type: cell-based, rat; settings: domoic acid at 10^-5 M, after 24 hours
# Experimental: Domoic acid at 10^−5M leads to loss of more than 50% of motor neurons after 24 hours (see is example), with even more dramatic effects after longer incubations.
# (§1) Rat motor neurons were isolated and purified as described in example 1 and cultured for 3 days in Neurobasal medium without neurotrophic factors (i.e. trophic factor withdrawal) in 4-well plates in the presence or absence of the test molecule. The neurotrophic factor BDNF is used as a positive control for all experiments. […] Motor neurons were grown for 3 days in vitro, then domoic acid at various concentrations was added and the number of surviving motor neurons was counted after 26 hours.
# Rat motor neurons = test: Motor neuron survival on trophic factor withdrawal; assay type: cell-based; settings: cultured 3 days in Neurobasal medium without neurotrophic factors, 4-well plates; FIG. 1
# Experimental: Spinal cords are dissected from day E14.5 sprague Dawley rat embryos (Camu et al., (1993) In: “Immunoselection Strategies for Neural Cell Culture”, Neuroprotocols: A companion to Methods in Neurosciences 2, 191-199). The dorsal part of the spinal cord is cut away, and the meninges removed. Each cord is cut into pieces using a scalpel and placed into 1 ml modified F10 medium (Ca2+, Mg2+-free, no glutamine or phenol red), with 0.025% trypsin, at 37° C. for 10 minutes. The fragments are transferred to 1 ml L15 containing 0.4% BSA and 0.1 mg/ml Dnase, and triturated using a blue (1 ml) tip. Cells are then spun through a BSA (4% w/v) cushion for 5 minutes at 480 g. The small cells are removed using a metrizamide (Serva) density gradient: 6.5% (w/v) metrizamide is placed under the cell suspension and centrifuged for 15 minutes at 860 g. The large motor neurons stay at the interface between the medium and the metrizamide, while the small cells (including non-neuronal cells) are pelleted. […]
# as §1, with “molecule.” for “molecule. The neurotrophic factor BDNF is used as a positive control for all experiments.”, “hours. […]” for “hours.”
# isolated neurons = test: Low-density isolated neuron cultures (384-well plate) under growth factor privation, individual cell count; assay type: cell-based; settings: growth factor privation to induce apoptosis, exclusion threshold below 300 μm^2, untreated well 18 neurons, FIG. 3A
# From the text: FIG. 3 represents two 9 mm^2-wells of a microtitration plate (384 wells) containing low-density cultures of isolated neurons according to this invention. The cultures were subjected to growth factor privation to induce apoptosis, and treated or not with BDNF. […] The exclusion threshold is below 300 μm^2.
Molecule,survival of motor neurons on trophic factor withdrawal (Rat motor neurons),also measured
C/C(=C/C=C/[C@@H](C)C(=O)O)[C@H]1CN[C@H](C(=O)O)[C@H]1CC(=O)O [Domoic acid],,loss of motor neurons (motor neurons): more than 50%
CCCC(CCC)C(=O)[O-].[Na+] [sodium valproate],enhances survival of motor neurons,
(4-carboxyphenyloxyamino) butanoic acid,no effect on motor neuron survival,
B1,,neurons present per 9 mm^2 well (isolated neurons): 73 neurons

# — patent US6949354B2, “Methods for screening compounds active on neurons” (Trophos, priority 1999, dated 2005)
